# Source: patent US7713923B2, “Self-assembling peptides incorporating modifications and methods of use thereof” (Massachusetts Institute of Technology, priority 2003, dated 2010)
# Tests used:
# [1] = test system: neurons; conditions: neurons grown on surface; cited from earlier work
# [2] = test system: human aortic endothelial cells (HAEC); assay: HAEC attachment assay on peptide scaffolds; format: cell-based; conditions: after one hour; modified peptides as 9:1 blends with RAD16-I
# Protocol: Meanwhile, human aortic endothelial cells (HAEC) (CC-2535, Cambrex, MD) that had been maintained under standard culture conditions (passage 5-6) were harvested at 80% confluence using trypsin and loaded on top of the preformed peptide scaffolds at a cell density of 8×10^4 cells/cm^2 and cultured in the cell culture incubator at 37° C. with 5% CO2. Cell attachment assays were performed one hour after the initial cell loading. To perform the assays, the covering media was removed, and unattached cells were counted on a hematocytometer. Cell counting was performed by mechanically disrupting the scaffold containing cells by pipetting up and down and then counting cells on a hematocytometer after performing Trypan blue (T 9906, Sigma, MO) exclusion assay staining to assess cell viability. In some experiments, for comparison, EC were cultured on inserts coated with Matrigel or collagen (1.5 mg/ml, i.e. 0.15%) according to standard protocols.
# [3] = Rheometry (dynamic frequency and time sweep); format: physicochemical
# Protocol: Rheometry. Rheological assays were performed on a 50 mm parallel plate ARES strain controlled rheometer (Rheometric Scientific, NJ). Samples were dissolved in deionized water at a final concentration of 2.9 mM and sonicated for one hour the day prior to the analysis. A volume of 1 ml was loaded on the lower plate, and the upper plate was set to a gap size between 0.4-0.45 mm. Dynamic frequency sweep tests were performed in a range of frequencies from 100 to 0.1 radis. After the test, PBS was added around the lower plate in order to promote gelation. The peptide was allowed to gel for 10 min at room temperature before the test was performed once again. After a dynamic frequency sweep test, the behavior of samples over time was tested. A dynamic time sweep test was performed at 10 rad/s for 5 min.
# Rheology. A dynamic strain sweep was first performed on RAD16-I to set the linear viscoelastic region of the test and to select a fixed strain for the dynamic frequency sweep tests (FIG. 19). This linear viscoelastic range is defined by constant moduli, G′ and G″. It is important to select a strain within this range to obtain reliable results (Schramm, 1994). The strain selected was 0.01 (dimensionless) and was applied in all assays.
# [4] = Circular dichroism (secondary structure); format: physicochemical; conditions: 25 μM peptide in water, room temperature, 195-250 nm
# Protocol: Circular dichroism (DC). CD spectra were gathered on an Aviv model 202 spectropolarimeter. Samples were prepared by diluting stock peptide solutions in water (0.5%) to a working concentration of 25 μM. Samples were analysed at room temperature in a quartz cuvette with a path length of 0.3 cm and in the wavelength range 195-250 nm.
# Circular dichroism. CD spectra were obtained for each peptide sequence to assess its secondary structure. The secondary structure identifies ordered structures within a polypeptide such as α-helices and β-sheets. […] (Havel, 1996).
# [5] = Gel formation by visual observation; format: physicochemical; conditions: 1% solution, standing overnight at room temperature, no PBS
# Protocol: The peptides used in the examples are based on the self-assembling peptide RAD16-I. The peptide was modified to include a variety of peptide motifs previously identified as mediating various biological activities. Physicochemical and structural properties of the peptides were assessed using a variety of techniques. Peptide solubility in aqueous solution was tested. The ability of the peptides to self-assemble into higher order structures was examined. In particular, the ability of the peptides to form various secondary structures (e.g., β-sheet) was determined using circular dichroism. The ability of the peptides to self-assemble into nanofibers was evaluated using atomic force microscopy (AFM). Gel formation was assessed by visual observation and rheology.
# Gel formation. Each peptide solution at 1% was used to assess hydrogel formation. […] For all the soluble peptides, gel formation was readily observed upon the addition of equal volumes of phosphate buffered saline (PBS).
# [6] = test system: Liver progenitor cells; conditions: encapsulated cells; cited from earlier work
# [7] = test system: human aortic endothelial cells (HAEC); assay: NO release determination (Griess method); format: cell-based; conditions: nitrite in culture supernatant; RAD16-I 100%, others 9:1 blend
# Protocol: NO release determination. Nitric oxide (NO) release was estimated by measuring nitrites (NOx) by the Griess method. Briefly, the media was replaced after the third day of culture by new media without fetal bovine serum (FBS) or ascorbic acid. The next day, the media was used to analyze NO release using a commercially available kit (482702, Calbiochem, CA) following the manufacturer instructions. Each condition was tested in triplicate.
# [8] = test system: human aortic endothelial cells (HAEC); assay: Western blot of laminin 1 and collagen IV production by HAEC; format: cell-based; conditions: compared to conventional 2D tissue culture plates
# Source text: Western blots. Harvested HAEC for each culture condition were counted and lysed with sample buffer (NP0007, Invitrogen, CA) containing 2% (v/v) β-mercaptoethanol and a cocktail of protease inhibitors (1836153, Complete Mini, Roche, Penzberg, Germany) to avoid proteolysis. Cell lysates were run on a 10% PAGE system in MOPS buffer (NP0301, NP0001 Invitrogen, CA), and proteins were transferred to PVDF membranes (LC2002, Invitrogen, CA) to perform western blots. Briefly, membranes were blocked with 2% BSA and 0.1% Triton-X 100 in PBS. Two primary antibodies were used: mouse monoclonal IgG, anti human laminin γ1 [laminin B2 chain] (1 μg/ml, B1920, Chemicon, CA) and mouse monoclonal IgG, anti human collagen IV [7S domain] (2 μg/ml, MAB3326, Chemicon, CA). A secondary antibody, goat polyclonal anti-mouse IgG-HRP conjugated (1:5000 dilution, sc-2302, Santa Cruz Biotechnology, CA) was used for detection by chemiluminescence (sc-2048, Santa Cruz Biotechnology, CA). Protein bands were visualized by exposure to an X-ray film (Biomax Film, Kodak, N.Y.).
structure (smiles),measurement,setting,value
"CC(=O)N[C@@H](CCCNC(=N)N)C(=O)N[C@@H](C)C(=O)N[C@@H](CC(=O)O)C(=O)N[C@@H](C)C(=O)N[C@@H](CCCNC(=N)N)C(=O)N[C@@H](C)C(=O)N[C@@H](CC(=O)O)C(=O)N[C@@H](C)C(=O)N[C@@H](CCCNC(=N)N)C(=O)N[C@@H](C)C(=O)N[C@@H](CC(=O)O)C(=O)N[C@@H](C)C(=O)N[C@@H](CCCNC(=N)N)C(=O)N[C@@H](C)C(=O)N[C@@H](CC(=O)O)C(=O)N[C@@H](C)C(N)=O [RAD16-I, AcN-(RADA)4-CONH2]",neurite outgrowth and synapse formation on peptide structure,[1],able to serve as a substrate for neurite outgrowth and formation of functionally active synapses
same,HAEC attachment to the surface,[2],~100%
same,"increase of both moduli (G′, G″) upon addition of salts","[3]; PBS added, 10 minutes gelation",≈ 10 fold
same,storage modulus G′,"[3]; after addition of PBS, dynamic frequency sweep, strain 0.01, 2.9 mM peptide",2.5×10^3 Pa
same,Secondary structure (CD),[4],β-sheet
same,Increased viscosity by visual inspection,[5],Increased viscosity was observed
same,hepatocyte marker expression,[6],expressed markers indicative of hepatocyte phenotype
same,nitric oxide (NO) release by HAEC,[7],promote NO release
same,laminin 1 and collagen IV deposition by HAEC,[8],significant enhancement of laminin 1 and collagen IV deposition
